From the NIST ThermoML archive (doi:10.1016/j.jct.2012.09.023)
Numbers after ± are expanded uncertainties.

Details: 101.33 kPa, Liquid, Pycnometric method

| mass density (303.15 K) [kg/m3] | mass density (313.15 K) [kg/m3] | mass density (323.15 K) [kg/m3] | Structure (SMILES) |
| --- | --- | --- | --- |
| 1227.9 ± 2.1 | 1218 ± 2.1 | 1208.2 ± 2.1 | CC(=O)N(C)C.O=C(O)C(F)(F)F [N,N-dimethylacetamide trifluoroacetate] |
| 1246 ± 2.2 | 1232.9 ± 2.2 | 1219.9 ± 2.2 | CN(C)C=O.O=C(O)C(F)(F)F [N,N-dimethylformamide trifluoroacetate] |
| 1232.3 ± 2.1 | 1226.1 ± 2.1 | 1219.9 ± 2.1 | CN1CCCC1=O.O=C(O)C(F)(F)F [N-methylpyrrolidone trifluoroacetate] |
